Data on 24 compounds can be found in patent US9187472B2 (AbbVie Inc., priority 2012, dated 2015).

Structures are written as SMILES.

This assay concerns PC3 cells. The assay can be described thus: NAMPT Cell Proliferation Assay. The assay is classed as cell-based. The settings on record: Homo sapiens, PC-3, 120 h, 5 days incubation, cell viability by Cell Titer Glo. A digest of the protocol:
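IC50 values derive from sigmoidal dose-response fits of percent inhibition of PC3 viability, measured by luminescence after 5 days of compound treatment. Cells (500/well, RPMI containing 10% heat-inactivated FBS) are allowed to attach overnight, and compounds are tested at 10-fold dilutions between 10 μM and 1×10^−5 μM.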
In general terms: ATP-based viability assays read luminescence as a measure of living cells.
For `CC(C)S(=O)(=O)N1CCC(c2ccc(C(=O)NCc3ccc4ncnn4c3)s2)CC1` [Example 859, 5-[1-(propan-2-ylsulfonyl)piperidin-4-yl]-N-([1,2,4]triazolo[1,5-a]pyridin-6-ylmethyl)thiophene-2-carboxamide], half-maximal inhibition (IC50) required 10.4 nM.

For the compound `CC(C)(CN1CCNCC1)Cn1cc(-c2ccc(C(=O)NCc3ccn4ccnc4c3)s2)cn1` [Example 1082, 5-{1-[2,2-dimethyl-3-(piperazin-1-yl)propyl]-1H-pyrazol-4-yl}-N-(imidazo[1,2-a]pyridin-7-ylmethyl)thiophene-2-carboxamide], it took 2.18 nM to reach half-maximal inhibition (IC50).

In the case of `CCn1ncc(Cl)c1C(=O)N1CCC(c2ccc(NC(=O)NCc3ccn4ccnc4c3)cc2)CC1` [Example 1047, 1-(4-{1-[(4-chloro-1-ethyl-1H-pyrazol-5-yl)carbonyl]piperidin-4-yl}phenyl)-3-(imidazo[1,2-a]pyridin-7-ylmethyl)urea], the IC50 (as a rule, the point on the concentration scale where inhibition reaches its midpoint) is 0.205 nM.

In turn, `O=C(NCc1ccn2ccnc2c1)c1ccc(C2CCN(C(=O)c3ncccc3Cl)CC2)cc1` [Example 965, 4-{1-[(3-chloropyridin-2-yl)carbonyl]piperidin-4-yl}-N-(imidazo[1,2-a]pyridin-7-ylmethyl)benzamide] came in with an IC50 of 8.31 nM.

`CN(C)C(=O)N1CCC(c2ccc(C(=O)NCc3ccn4ccnc4c3)cc2)CC1` [Example 1077, 4-{4-[(imidazo[1,2-a]pyridin-7-ylmethyl)carbamoyl]phenyl}-N,N-dimethylpiperidine-1-carboxamide]: it took 69.1 nM to reach half-maximal inhibition (IC50).

Regarding `COc1cccc(CC(=O)N2CCC(c3ccc(NC(=O)NCc4ccn5ccnc5c4)cc3)CC2)c1` [Example 952, 1-(imidazo[1,2-a]pyridin-7-ylmethyl)-3-(4-{1-[(3-methoxyphenyl)acetyl]piperidin-4-yl}phenyl)urea], the IC50 was 10.3 nM.

On to `O=C(NCc1ccn2ccnc2c1)Nc1ccc(C2CCN(C(=O)c3ccccn3)CC2)cc1F` [Example 1075, 1-{2-fluoro-4-[1-(pyridin-2-ylcarbonyl)piperidin-4-yl]phenyl}-3-(imidazo[1,2-a]pyridin-7-ylmethyl)urea], for which the midpoint of inhibition, the IC50, lay at 7.62 nM.

For the compound `CC1(Cn2cc(-c3ccc(C(=O)NCc4ccn5ccnc5c4)s3)cn2)CCN(C(=O)CSC[C@H](N)C(=O)O)CC1` [Example 1164, S-(2-{4-[(4-{5-[(imidazo[1,2-a]pyridin-7-ylmethyl)carbamoyl]thiophen-2-yl}-1H-pyrazol-1-yl)methyl]-4-methylpiperidin-1-yl}-2-oxoethyl)-L-cysteine], half-maximal inhibition (IC50) was put at 158 nM.

Regarding `O=C(NCc1ccn2ccnc2c1)c1ccc(C2CCN(C(=O)c3cnc4c(c3)CCCC4)CC2)cc1` [Example 986, N-(imidazo[1,2-a]pyridin-7-ylmethyl)-4-[1-(5,6,7,8-tetrahydroquinolin-3-ylcarbonyl)piperidin-4-yl]benzamide], the IC50 amounted to 21.4 nM.

`O=C(NCc1ccn2ccnc2c1)c1ccc(C2CCN(C(=O)c3ccnn3C3CCCC3)CC2)cc1` [Example 1101, 4-{1-[(1-cyclopentyl-1H-pyrazol-5-yl)carbonyl]piperidin-4-yl}-N-(imidazo[1,2-a]pyridin-7-ylmethyl)benzamide]: inhibition was half-maximal at 2.06 nM (IC50).

Consider `CC(Oc1cccc(F)c1)C(=O)N1CCC(c2ccc(C(=O)NCc3ccn4ccnc4c3)cc2)CC1` (stereo not drawn) [Example 968, 4-{1-[2-(3-fluorophenoxy)propanoyl]piperidin-4-yl}-N-(imidazo[1,2-a]pyridin-7-ylmethyl)benzamide], for which the IC50 turned out to be 1.77 nM.

Compound `O=C(NCc1ccn2ccnc2c1)c1ccc(C2CCN(C(=O)c3cccnc3Cl)CC2)cc1` [Example 913, 4-{1-[(2-chloropyridin-3-yl)carbonyl]piperidin-4-yl}-N-(imidazo[1,2-a]pyridin-7-ylmethyl)benzamide] came in with an IC50 of 14.4 nM.

The compound `CC(C)Cc1cc(-c2ccc(C(=O)NCc3ccn4ccnc4c3)s2)n(Cc2ccccc2)n1` [Example 907, 5-[1-benzyl-3-(2-methylpropyl)-1H-pyrazol-5-yl]-N-(imidazo[1,2-a]pyridin-7-ylmethyl)thiophene-2-carboxamide] had an IC50 of 7.09 nM.

`C/C=C(\C)C(=O)N1CCC(c2ccc(C(=O)NCc3ccn4ccnc4c3)cc2)CC1` [Example 935, N-(imidazo[1,2-a]pyridin-7-ylmethyl)-4-{1-[(2E)-2-methylbut-2-enoyl]piperidin-4-yl}benzamide] had an IC50 of 10.3 nM.

Compound `CCCc1c(C(=O)N2CCC(c3ccc(NC(=O)NCc4ccn5ccnc5c4)cc3)CC2)cnn1C` [Example 1141, 1-(imidazo[1,2-a]pyridin-7-ylmethyl)-3-(4-{1-[(1-methyl-5-propyl-1H-pyrazol-4-yl)carbonyl]piperidin-4-yl}phenyl)urea] gave an IC50 of 2.2 nM.

The compound `Cn1nc(C2CC2)cc1C(=O)N1CCC(c2ccc(NC(=O)NCc3ccn4ccnc4c3)cc2)CC1` [Example 1013, 1-(4-{1-[(3-cyclopropyl-1-methyl-1H-pyrazol-5-yl)carbonyl]piperidin-4-yl}phenyl)-3-(imidazo[1,2-a]pyridin-7-ylmethyl)urea] yielded an IC50 of 2.32 nM.

With `CC(C)CCC(=O)N1CCC(c2ccc(NC(=O)NCc3ccn4ccnc4c3)c(F)c2)CC1` [Example 1072, 1-{2-fluoro-4-[1-(4-methylpentanoyl)piperidin-4-yl]phenyl}-3-(imidazo[1,2-a]pyridin-7-ylmethyl)urea], the IC50 was 6.24 nM.

Compound `COc1cc(C(=O)N2CCC(c3ccc(NC(=O)NCc4ccn5ccnc5c4)cc3)CC2)ncc1C` [Example 1136, 1-(imidazo[1,2-a]pyridin-7-ylmethyl)-3-(4-{1-[(4-methoxy-5-methylpyridin-2-yl)carbonyl]piperidin-4-yl}phenyl)urea] returned an IC50 of 3.02 nM.

The compound `O=C(NCc1ccc2ncnn2c1)c1ccc(S(=O)(=O)c2ccccc2)cc1` [Example 882, 4-(phenylsulfonyl)-N-([1,2,4]triazolo[1,5-a]pyridin-6-ylmethyl)benzamide] showed an IC50 of over 10000 nM.

In turn, `O=C(NCc1ccn2ccnc2c1)Nc1ccc(C2CCN(C(=O)COc3ccc(F)cc3)CC2)cc1` [Example 943, 1-(4-{1-[(4-fluorophenoxy)acetyl]piperidin-4-yl}phenyl)-3-(imidazo[1,2-a]pyridin-7-ylmethyl)urea] returned an IC50 of 24.4 nM.

The compound `O=C(NCc1ccc2ncnn2c1)c1ccc(C2CCN(C(=O)c3ccc(F)cc3F)CC2)s1` [Example 834, 5-[1-(2,4-difluorobenzoyl)piperidin-4-yl]-N-([1,2,4]triazolo[1,5-a]pyridin-6-ylmethyl)thiophene-2-carboxamide] had an IC50 of 12.7 nM.

For `COc1cc(OC)cc(C(=O)N2CCC(c3ccc(C(=O)NCc4ccn5ccnc5c4)cc3)CC2)c1` [Example 919, 4-[1-(3,5-dimethoxybenzoyl)piperidin-4-yl]-N-(imidazo[1,2-a]pyridin-7-ylmethyl)benzamide], half-maximal inhibition (IC50) required 101 nM.

Turning to `O=C(NCc1ccc2ncnn2c1)c1ccc(C2CCN(C(=O)c3cc(F)ccc3F)CC2)s1` [Example 835, 5-[1-(2,5-difluorobenzoyl)piperidin-4-yl]-N-([1,2,4]triazolo[1,5-a]pyridin-6-ylmethyl)thiophene-2-carboxamide], the IC50 stood at 3.95 nM.

Compound `Cn1nc(C2CC2)cc1-c1ccc(C(=O)NCc2ccn3ccnc3c2)s1` [Example 892, 5-(3-cyclopropyl-1-methyl-1H-pyrazol-5-yl)-N-(imidazo[1,2-a]pyridin-7-ylmethyl)thiophene-2-carboxamide] displayed an IC50 of 6.76 nM.
